Laboratory results reported in patent US10526416B2, “Anti-HER3 antibodies and uses of same” (Yeda Research and Development Co. Ltd., priority 2014, dated 2020).

B1: NG140: anti-HER3 mAb; light chain CDRs SEQ ID NOs: 13-15, heavy chain CDRs 16-18 (antibody, V domains shown)
VH: QVQLKESGPGLVKPSQSLSLTCSVTGYSITSGYYWNWIRQFPGNKLEWMGSIYYDGSNNYNPSLKNRISVTRDTSKNQFFLKLNSVTTEDTATYYCARDYDVGYAMDYWGQGASVTVSS
VL: DIVLTQSSSYLSVSLGGRVTITCKASDHINNWLAWYQQKPGNAPRLLISGATSLETGVPSRFSGSGSGKDYTLSITSLQTEDVATYYCQQYWSIPWTFGGGTKLEIK
modifications: VH chain of NG140 polypeptide; VL chain of NG140 polypeptide

How the values were obtained:
EGFR phosphorylation = assay: Western blot of EGFR phosphorylation in PC9ER-AZDR cells; assay type: cell-based, human; details: 6 hours, 1 μM
Method: Cells were grown under specified conditions or treated as indicated. Following the cells were washed twice with cold PBS and scraped into lysis buffer [50 mM Hepes (pH 7.5), 10% glycerol, 150 mM NaCl, 1% Triton X-100, 1 mM EDTA, 1 mM EGTA, 10 mM NaF, 0.1 mM Na3VO4, and a complete protease inhibitor cocktail]. Thereafter, lysates were centrifuged at 14,000 g for 15 minutes at 4° C. The supernatant was used for subsequent procedures. Western blot analyses were conducted following protein separation using gel electrophoresis and transfer to nitrocellulose membranes. Immunoblotting was performed according to the antibody manufacturers' recommendation. Blocking was done using 5% milk in PBST (0.5% Tween20 Sigma Cat#P9416). Antibody binding to membrane blots was detected using horseradish peroxidase-secondary antibodies (Jackson ImmunoResearch Laboratories), followed by treatment with ECL Western blotting detection reagents (GE Healthcare).

PC9ER-AZDR cells = assay: MTT assay on PC9ER-AZDR cells; details: 72 hours treatment
H1975 NSCLC cells = assay: H1975 NSCLC tumor growth in CD1-nu/nu mice; assay type: in vivo
BxPC3 cells = assay: MTT assay on BxPC3 cells in culture; assay type: cell-based, human; details: 3 days
Method: (§1) FIGS. 15A-F show the effects of a mixture of two anti HER3 mAbs, in vivo on BxPC3 cell xenografts and in vitro. (FIGS. 15A-C) CD1-Nude mice were grafted subcutaneously with 5×10^6 BxPC3 cells. Once tumors became palpable (after 13 days), the mice were randomized into group of 8 mice and treated every 3 days for 5 weeks. The control group (CTRL) was injected intra-peritoneally (IP) with 200 μl PBS. The other groups were treated with mAb alone or in combination at a final concentration of 0.2 mg/0.2 ml of PBS per mouse. The mice were weighted once a week and the tumors measured twice a week. An average tumor size of 7-8 mice (+/−SEM) is shown. (FIGS. 15D-F) Proliferation assays using MTT were performed on BxPC-3. 5,000 cells per well were plated the day before and treated for 72 h with the indicated mAb treatment. Decreasing concentrations of the indicated mAb (alone or in combination) were used in medium supplemented with 1% serum and NRG (10 ng/ml).
To determine if the combination of NG33 mAb with another anti-HER3 mAb is more efficient than using NG33 alone, the combination of two mAbs, NG33 and XC252, was tested on several tumor cell lines, which were grafted subcutaneously (gastric: N87, lung: A549, pancreatic: BxPC3, ovarian: OVCAR-5, and head and neck: CAL-27, FIG. 14). This pilot was performed with 3 mice per group. Mice were injected twice a week with the mAb combination or with PBS. The best responder of these in vivo models for solid tumor growth was the BxPC3 xenograft model. […] This experiment was performed on 7 to 8 mice per group. The mice were treated every 3 days with PBS, each mAb alone or a mAb combination, for 5 weeks (0.2 mg/injection). […] In order to reinforce the in vivo data, the cytotoxicity of each mAb alone or in combination with NG33 was tested on BxPC3 cells in culture (FIGS. 15D, 15E and 15F). Decreasing concentrations of mAb were used and a MTT assay was performed following 3 days of treatment. […] On the contrary, XC252 used alone has a […] cytotoxic impact on BxPC3 proliferation leading to 60% inhibition of cell survival at high concentration.

BxPC3 xenografts = assay: BxPC3 cell xenografts in CD1-Nude mice; assay type: in vivo; details: 0.2 mg/injection IP every 3 days for 5 weeks, 7 to 8 mice per group
Method: as §1
All animal studies were approved by the Weizmann Institute's Review Board (IRB). Tumor bearing CD1/nude mice were randomized in groups of five-ten mice and injected subcutaneously in the right flank with cancer cells (3-5×10^6 per mouse depending on the cell line). mAbs were injected intraperitoneally at a total dose of 200 μg per mouse per injection, twice a week, for 5 weeks or until tumors reached the size of 1,500 mm^3. In experiments evaluating the effect of the TKI AZD-9291, Vehicle (Vehicle formulation: HPMC 0.5% (sigma Cat#56340), Tween80 0.1% (Sigma Cat #P8074 in water), Erlotinib at a dose of 50 mg/kg per injection, or AZD9291 at a dose of 1 or 5 mg/kg per injection were injected daily intraperitoneally. In one experiment (FIG. 16), mice were treated daily with Erlotinib at a dose of 50 mg/kg per injection until tumors reached a size of 800 mm^3 and only then were treated as indicated. Tumor volume and body weight were evaluated twice and once per week, respectively. Mice were euthanized when tumor size reached 1,500 mm^3. […] Survival of the tumor bearing mice was recorded and depicted by Kaplan-Meier analysis. […]

IgB3 = target: T1, IgB3 (Homo sapiens, UniProt P21860); assay: Antibody competition assay with Lumi4(Tb)-labeled NG33 on IgB3-coated plates; assay type: binding; details: NG33-K2 1 nM
T1 construct: To produce IgB3 (recombinant HER3 extracellular domain fused to a human IgG Fc domain); made in house
T1 sequence (P21860 20-643 limits assumed): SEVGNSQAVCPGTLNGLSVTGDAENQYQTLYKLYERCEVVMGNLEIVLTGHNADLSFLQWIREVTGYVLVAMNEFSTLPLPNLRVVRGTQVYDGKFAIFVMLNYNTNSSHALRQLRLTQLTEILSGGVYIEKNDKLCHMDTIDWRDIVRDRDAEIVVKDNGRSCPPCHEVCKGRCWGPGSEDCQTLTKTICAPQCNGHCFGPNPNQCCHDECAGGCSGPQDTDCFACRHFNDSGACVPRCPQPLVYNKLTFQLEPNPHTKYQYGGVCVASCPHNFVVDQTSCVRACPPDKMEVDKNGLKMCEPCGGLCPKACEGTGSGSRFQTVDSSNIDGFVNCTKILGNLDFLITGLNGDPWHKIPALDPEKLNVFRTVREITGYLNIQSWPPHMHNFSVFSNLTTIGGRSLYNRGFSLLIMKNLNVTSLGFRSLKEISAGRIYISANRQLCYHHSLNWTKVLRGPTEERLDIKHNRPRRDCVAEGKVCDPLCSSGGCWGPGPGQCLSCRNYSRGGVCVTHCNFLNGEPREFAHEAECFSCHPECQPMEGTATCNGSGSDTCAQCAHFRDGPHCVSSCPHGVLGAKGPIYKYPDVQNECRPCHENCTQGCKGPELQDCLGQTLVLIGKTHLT
T1 sequence (P01857 99-330 partner limits assumed): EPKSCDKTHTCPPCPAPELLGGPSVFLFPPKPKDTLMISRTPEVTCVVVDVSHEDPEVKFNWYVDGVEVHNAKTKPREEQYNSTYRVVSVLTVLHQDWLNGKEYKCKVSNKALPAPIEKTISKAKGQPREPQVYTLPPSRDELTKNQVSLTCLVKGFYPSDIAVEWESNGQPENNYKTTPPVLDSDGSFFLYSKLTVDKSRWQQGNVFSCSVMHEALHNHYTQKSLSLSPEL
Method: FIGS. 12A-D show a combination of two mAbs directed to two different epitopes of HER3. (FIGS. 12A and 12B) The antibodies NG33 and XC252 were labeled with the fluorescent dye Lumi4® Tb Cryptate (K2). 96 well-plate were coated with IgB3 (1.5 μg/ml), blocked with PBS-BSA and incubated for 1 h with various concentrations of mAbs under gentle shaking at RT. The labeled mAb, NG33-K2 (FIG. 12A) or XC252-K2 (FIG. 12B), was then added at 1 nM final concentration. After ah incubation, the plate was washed 4 times with KREBS buffer, and the fluorescence intensity at 610 nm was measured using a fluorescence microplate reader. (FIG. 12C) The various anti-HER3 mAb combinations were studied for their ability to trigger HER3 degradation using N87 cells. Cells were treated for 2 h at 37° C. with mAb (10 μg/ml). After cell lysis and protein extraction, the samples were subjected to immunoblotting with the indicated antibodies. (FIG. 12D) The combination's capacity to modulate NRG-induced phosphorylation of HER3, AKT and ERK was evaluated using N87 cells. After 20 min treatment at 37° C. with 10 μg/ml of mAbs, NRG (20 ng/ml) was added to the cells for 10 min. The cells were then lysed, and equal quantities of lysate protein were electrophoresed before immunoblotting, as indicated.
Agent labeling was performed by Cisbio. […] Following 1 h incubation, the plate was washed 4 times with KREBS buffer (146 mM NaCl, 4 mM KCl, 0.5 mM MgCl2, 1 mM CaCl2, 10 mM Hepes, 1 gr/L glucose, and 1 mg/mL albumin), and the fluorescent intensity (excitation: 488 nm, emission: 610 nm) was measured using a fluorescence microplate reader. […] Finally, following two washes with KREBS buffer, the fluorescence intensity was measured at 670 nm (excitation: 620 nm).
Combinations of antibodies directed against two different epitopes of the same receptor, as has been previously shown, can improve the effect of treatment with a single mAb (28, 29). […] First, it was determined which antibody from the anti-HER3 series targets an epitope distinct from that targeted by NG33. […]

Row | Molecule | EGFR phosphorylation in PC9ER-AZDR cells on exposure (EGFR phosphorylation) | survival / sensitivity of PC9ER-AZDR cells (MTT) (PC9ER-AZDR cells) | inhibition of H1975 tumor growth (H1975 NSCLC cells; AZD9291 5 mg/kg/day or triple mAbs) | body weight gain (H1975 NSCLC cells; H1975 tumor-bearing mice, AZD9291 5 mg/kg/day) | effect on BxPC3 proliferation/survival (in words) (BxPC3 cells) | effect on BxPC3 xenograft tumor growth (BxPC3 xenografts) | effect on binding of Lumi4(Tb)-labeled NG33 to IgB3 (IgB3)
1 | C=CC(=O)Nc1cc(Nc2nccc(-c3cn(C)c4ccccc34)n2)c(OC)cc1N(C)CCN(C)C [AZD-9291] | EGFR remained phosphorylated | lost sensitivity to AZD-9291 | comparably inhibited growth of the erlotinib-resistant human NSCLC | slightly inhibited body weight gain compared with the triple mAb combination |  |  | 
2 | B1 |  |  |  |  | did not interfere with cell proliferation | no statistically significant ability to decrease tumor growth | did not alter NG33 binding
